From article PMC4224962 (Nature, 2014)

Columns and labels:
Format in all cases: cell-based, Mus musculus
primary white adipocytes = assay: Thermogenic gene expression; conditions: for Ucp1 expression: primary adipocytes treated with the indicated proteins 1 μg/ml for 24 hr, n = 3 (Fig. 2e)
primary adipocytes = assay: Cellular oxygen consumption rate; conditions: primary white adipocytes, NE 100 nM, PTHrP or PTH 100 ng/ml, 24 hr, n = 4
UCP1 protein = UCP1 protein levels by western blotting in primary white and brown adipocytes; conditions: NE 100 nM, PTHrP or PTH 100 ng/ml each, 24 hr
primary brown adipocytes = assay: Thermogenic gene expression; conditions: peptides 100 ng/ml for 2 hr, RT-qPCR, n = 3 (Extended Data Fig. 3d)

Row | Molecule | O2 consumption, including basal, uncoupled and maximal respiration (primary adipocytes) | UCP1 protein levels (UCP1 protein) | Ucp1 expression (primary white adipocytes; RT-qPCR) | other results
1 | C=CC(=O)Nc1ccc2ncnc(Nc3ccc(OCc4cccc(F)c4)c(Cl)c3)c2c1 [AST-1306] |  |  |  | browning activity present in LLC cell-conditioned medium (primary white adipocytes; AST-1306 1 μM and LLC cell-conditioned medium for 24 hr, primary adipocytes, n = 3 (Fig. 3a)): largely unaffected; Ucp1 mRNA induction by BTC, EREG or HBEGF (primary white adipocytes; AST-1306 1 μM with BTC, EREG or HBEGF 100 ng/ml for 24 hr, primary adipocytes, n = 3 (Extended Data Fig. 3c)): completely blocked Ucp1 mRNA induction
2 | NC[C@H](O)c1ccc(O)c(O)c1 [NE, norepinephrine] | significantly raised O2 consumption | increased UCP1 protein comparably |  | 
3 | PTH: Synthetic parathyroid hormone 1-34 peptide, purchased from Bachem (SVSEIQLMHNLGKHLNSMERVEWLRKKLQDVHNF; Parathyroid hormone; UniProt P01270 32-65, looked up, fragment) | significantly raised O2 consumption | increased UCP1 protein comparably |  | thermogenic gene expression (primary brown adipocytes): stimulated thermogenic gene expression; thermogenic gene expression (primary white adipocytes; primary white adipocytes, peptides 100 ng/ml for 2 hr, RT-qPCR, n = 3 (Fig. 3b)): stimulated thermogenic gene expression
4 | epiregulin [EREG] |  |  | induced Ucp1 expression | 
5 | heparin binding-EGF (protein, UniProt Q99075 63-148, looked up) Heparin-binding EGF-like …: DLQEADLDLLRVTLSSKPQALATPNKEEHGKRKKKGKGLGKKRDPCLRKYKDFCIHGECKYVKELRAPSCICHPGYHGERCHGLSL |  |  | induced Ucp1 expression | 
6 | betacellulin (protein, UniProt P35070 32-111, looked up) Betacellulin: DGNSTRSPETNGLLCGDPEENCAATTTQSKRKGHFSRCPKQYKHYCIKGRCRFVVAEQTPSCVCDEGYIGARCERVDLFY |  |  | induced Ucp1 expression | 
